According to patent publication US20200239530A1, “COMPOUNDS AND METHODS OF MODULATING PROTEIN DEGRADATION” (Vividion Therapeutics, Inc., priority 2017, published 2020):
Like-named read-outs stand apart in the source and are kept apart here.

How the values were obtained:
Assay in all cases: Competitive cysteine profiling, probe competition (Table 2B)
Assay type in all cases: binding
O95376 = target: T1, O95376 (Homo sapiens, UniProt O95376); conditions: 500 uM
T1 construct: Cells were resuspended in cold PBS on ice and sonicated with a probe sonicator to achieve lysis; endogenous in cells
T1 sequence (O95376 1-493): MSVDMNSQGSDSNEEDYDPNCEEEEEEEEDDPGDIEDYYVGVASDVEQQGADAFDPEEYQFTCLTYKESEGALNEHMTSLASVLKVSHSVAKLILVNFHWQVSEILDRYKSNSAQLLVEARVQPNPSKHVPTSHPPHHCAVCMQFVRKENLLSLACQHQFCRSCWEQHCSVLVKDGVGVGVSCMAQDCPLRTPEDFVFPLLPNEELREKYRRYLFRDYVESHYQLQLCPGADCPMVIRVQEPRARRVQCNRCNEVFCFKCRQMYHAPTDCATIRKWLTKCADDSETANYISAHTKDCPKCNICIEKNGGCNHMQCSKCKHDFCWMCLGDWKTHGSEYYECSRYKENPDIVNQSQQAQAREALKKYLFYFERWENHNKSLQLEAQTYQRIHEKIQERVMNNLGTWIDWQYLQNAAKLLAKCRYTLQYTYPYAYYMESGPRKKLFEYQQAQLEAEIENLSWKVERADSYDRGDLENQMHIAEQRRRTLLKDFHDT
Source text: (§1) The following 96-well sample prep protocol was used for sample preparation.

P60006 = target: T2, P60006 (Homo sapiens, UniProt P60006)
T2 construct: Cells were resuspended in cold PBS on ice and sonicated with a probe sonicator to achieve lysis; endogenous in cells
Source text: as §1

Q9NYG5 = target: T3, Q9NYG5 (Homo sapiens, UniProt Q9NYG5)
T3 construct: Cells were resuspended in cold PBS on ice and sonicated with a probe sonicator to achieve lysis; endogenous in cells
Source text: as §1

Q86VP6 = target: T4, Q86VP6 (Homo sapiens, UniProt Q86VP6)
T4 construct: 200 μL of lysate containing 5 mg/ml proteome was treated with 2 μL of 100× compound stock; endogenous in cells
T4 sequence (Q86VP6 1-1230): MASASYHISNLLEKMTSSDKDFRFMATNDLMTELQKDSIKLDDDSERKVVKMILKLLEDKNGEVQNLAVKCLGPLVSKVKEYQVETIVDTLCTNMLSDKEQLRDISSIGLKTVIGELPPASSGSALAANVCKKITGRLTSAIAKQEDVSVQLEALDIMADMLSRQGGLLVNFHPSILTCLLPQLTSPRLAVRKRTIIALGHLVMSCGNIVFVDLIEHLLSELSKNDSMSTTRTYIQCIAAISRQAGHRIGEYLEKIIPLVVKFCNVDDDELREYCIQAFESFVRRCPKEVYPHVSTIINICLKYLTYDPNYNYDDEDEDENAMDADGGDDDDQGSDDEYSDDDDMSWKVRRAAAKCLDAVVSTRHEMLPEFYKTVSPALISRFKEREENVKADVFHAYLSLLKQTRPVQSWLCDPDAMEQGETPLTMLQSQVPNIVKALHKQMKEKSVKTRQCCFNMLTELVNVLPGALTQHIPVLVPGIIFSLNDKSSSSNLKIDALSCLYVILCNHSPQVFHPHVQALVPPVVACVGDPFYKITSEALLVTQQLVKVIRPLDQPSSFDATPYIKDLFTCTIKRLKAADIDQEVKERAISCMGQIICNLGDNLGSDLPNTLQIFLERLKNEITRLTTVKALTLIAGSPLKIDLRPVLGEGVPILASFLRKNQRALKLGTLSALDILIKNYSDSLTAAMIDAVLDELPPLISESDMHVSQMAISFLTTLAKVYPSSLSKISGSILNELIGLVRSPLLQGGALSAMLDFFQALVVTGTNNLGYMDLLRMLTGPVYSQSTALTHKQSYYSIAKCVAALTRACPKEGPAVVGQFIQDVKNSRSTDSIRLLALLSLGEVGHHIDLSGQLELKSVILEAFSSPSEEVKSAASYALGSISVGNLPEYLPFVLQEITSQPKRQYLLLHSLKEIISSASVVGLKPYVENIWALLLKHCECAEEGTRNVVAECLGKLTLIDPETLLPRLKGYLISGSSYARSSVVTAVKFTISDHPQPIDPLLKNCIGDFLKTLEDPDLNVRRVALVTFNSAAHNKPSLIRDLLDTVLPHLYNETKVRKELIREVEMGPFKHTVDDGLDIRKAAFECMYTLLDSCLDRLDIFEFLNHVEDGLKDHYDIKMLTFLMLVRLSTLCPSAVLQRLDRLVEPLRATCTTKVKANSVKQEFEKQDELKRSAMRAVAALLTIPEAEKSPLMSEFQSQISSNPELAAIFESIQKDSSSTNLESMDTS
Source text: as §1

Q9H765 = target: T5, Q9H765 (Homo sapiens, UniProt Q9H765)
T5 construct: 200 μL of lysate containing 5 mg/ml proteome was treated with 2 μL of 100× compound stock; endogenous in cells
T5 sequence (Q9H765 1-288): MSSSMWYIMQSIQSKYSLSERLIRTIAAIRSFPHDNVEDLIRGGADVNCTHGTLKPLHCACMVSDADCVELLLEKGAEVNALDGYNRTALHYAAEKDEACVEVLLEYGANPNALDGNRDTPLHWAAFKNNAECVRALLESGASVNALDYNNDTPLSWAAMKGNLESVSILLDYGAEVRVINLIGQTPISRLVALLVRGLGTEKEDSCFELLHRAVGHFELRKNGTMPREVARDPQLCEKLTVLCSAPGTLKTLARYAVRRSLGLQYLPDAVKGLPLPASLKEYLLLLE
Source text: as §1

[1] = 100 uM, read-out: KB02_100 uM_percent_inhibition
[2] = 500 uM, read-out: KB02_500 uM_percent_inhibition
[3] = read-out: KB02_100 uM_percent_inhibition
[4] = 500 uM, read-out: KB05_500 uM_percent_inhibition
[5] = read-out: KB05_100 uM_percent_inhibition

T3 sequence (Q9NYG5 whole entry): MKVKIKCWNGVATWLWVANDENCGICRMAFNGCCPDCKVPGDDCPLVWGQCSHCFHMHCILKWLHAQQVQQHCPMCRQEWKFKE

COc1ccc2c(c1)CCCN2C(=O)CCl [KB02]
KB02_500 uM_percent_inhibition (O95376): 89%
inhibition at 100 µM (P60006; [1]): 44%
inhibition at 500 µM (P60006; [2]): 93%
inhibition at 100 µM (Q9NYG5; [3]): 41%
KB02_100 uM_percent_inhibition (Q86VP6; 100 uM): 27%
inhibition at 100 µM (Q86VP6; [3]): 47%
inhibition at 100 µM (Q9H765; [1]): 19%
inhibition at 500 µM (Q9H765; [2]): 54%

C=CC(=O)N(c1ccccc1)c1ccc(Br)cc1 [KB05]
KB05_500 uM_percent_inhibition (O95376): 79%
inhibition at 100 µM (P60006; 100 uM, read-out: KB05_100 uM_percent_inhibition): 24%
inhibition at 500 µM (P60006; [4]): 74%
inhibition at 100 µM (Q9NYG5; [5]): 27%
KB05_100 uM_percent_inhibition (Q86VP6; 100 uM): 7%
inhibition at 100 µM (Q86VP6; [5]): 4%
inhibition at 500 µM (Q9H765; [4]): 37%

O=C(CCl)Nc1cc(C(F)(F)F)cc(C(F)(F)F)c1 [KBO3]
KB03_500 uM_percent_inhibition (O95376): 100%
KB03_100 uM_percent_inhibition (P60006; 100 uM): 49%
KB03_500 uM_percent_inhibition (P60006; 500 uM): 65%
KB03_100 uM_percent_inhibition (Q9NYG5; 100 uM): 51%
KB03_100 uM_percent_inhibition (Q86VP6; 100 uM): 46%
KB03_500 uM_percent_inhibition (Q9H765; 500 uM): 40%
